Measurements reported in US5556856A, “Phthalazinone derivatives that modulate multi-drug resistance” (Asta Medica Aktiengesellschaft, priority 1992, dated 1996).
Like-named read-outs stand apart in the source and are kept apart here.

How the values were obtained:
[1] = test system: acetic acid induced writhing; test: Acetic acid induced Writhing Test (IWRAC); type: in vivo; conditions: mouse; for Analgesic effect in test model IWRAC: 6 mg/kg p.o.; for ED50: po, read-out: Analgesic effect in test model IWRAC, ED50
Description: (§1) The peripheral analgesic effect was shown in the model of the Writhing Test (IWRAC) and in the model of the Randall-Selitto inflammation pain test (IRS).
^a IWRAC = Acetic acid induced Writhing Test. Data in % refer to a
dose of 6 mg/kg p.o. (mouse). The ED50 values are given in mg/kg.

inflammation pain = test: Randall-Selitto inflammation pain test (IRS); type: in vivo; conditions: rat; for Analgesic effect in test model IRS: 10 mg/kg p.o.; for ED50: po, read-out: Analgesic effect in test model IRS, ED50
Description: as §1
^b IRS = RandallSelitto inflammation pain test. Data in % refer to a
dose or 10 mg/kg p.o. (rat). The ED50 values are given in mg/kg.

left atrial myocardium = test: Antiarrhythmic properties in rabbit cardiac preparations, left atrial myocardium; conditions: Oryctolagus cuniculus, 1 h, 60 minutes; for activation at 10 µM: left atrial myocardium; for inhibition at 10 µM: left auricle, read-out: Contractility, change in percentage from control
Description: (§2) The antiarrhythmic effect was tested by the following experimental procedure:
(§3) Twenty young rabbits of mixed breed and either sex, weighing 1475±75 g (mean±S.E.), were used. The animals were sacrificed by a blow on the head, their heart was isolated and the left atrium, a strip of the anterior free wall of the right ventricle, as well as one of the papillary muscles of the right ventricle were dissected and pinned to the bottom (`non-toxic` rubber) of a thermostated organic bath, containing modified Locke's solution. The composition of the solution was the following: Na^+ 140; K^+ 5.63; Ca^2+ 2.17; glucose 11, HCO3 25; CL 125; total 309 mmol/l, pH 7.4. Continuous stirring and oxygenation of the solution were maintained by the bubbling of a mixture of 95% O2 and 5% CO2. The temperature of the organ bath was kept at 32° C. The isolated left atrium, papillary muscle and the strip prepared from the anterior free wall of the right ventricle were electrically paced by rectangular electric impulses of 1 msec duration, twice-threshold intensity and a 100 per min frequency. During the experiments the following electro-physiological parameters were determined: electrical threshold, effective refractory period and conduction time. The effective refractory period (i.e. the least interval between two successive electro-mechanical responses) was measured by applying a threefold-threshold test stimulus (1 msec, square waves) delivered from a DISA Multistim at various times following the pacing impulse. Conduction time was measured on an oscilloscope (Tektronis 2230) as a distance (i.e. time) between the artifact of the pacing stimulus and the appearance of the subsequent surface potential recorded via bipolar platinum electrodes. The auxotonically measured contractility (maximum contractile force) was also followed (papillary muscle, left atrium).
(§4) After a 60 min equilibrium in the control solution, the preparations were exposed to 10 μM of the test substance for a period of 60 min. Except for the effect on the effective refractory periods (determined at the 30th and 60th min only) all the other parameters were measured in every 15th min, i.e. four times in the presence of a given concentration of the compound examined.
(§5) The values given in the Tables and Figures are means ±S.E. The effect of compounds on the various parameters was estimated statistically by the t-test (Student-Welch); P values<0.05 were regarded as significant.
(§6) Antiarrhythmic properties in rabbit cardiac
(§7) incubation time with drugs 60 minutes
(§8) change in percentage from control

right anterior free wall = test: Antiarrhythmic properties in rabbit cardiac preparations, right anterior free wall; conditions: Oryctolagus cuniculus, 1 h, 60 minutes, read-out: Electrical threshold, change in percentage from control
Description: as §2
as §3, with “The isolated left atrium, papillary muscle and the strip prepared from the anterior free wall of the right ventricle were electrically paced by rectangular electric impulses of 1 msec duration, twice-threshold intensity and a 100 per min frequency.” left out
as §4, with “examined. […]” for “examined.”

[2] = test system: right ventricular papillary muscle; test: Antiarrhythmic properties in rabbit cardiac preparations, right ventricular papillary muscle; conditions: Oryctolagus cuniculus, 1 h, 60 minutes; for inhibition at 10 µM: papillary muscle, read-out: Contractility, change in percentage from control; for activation at 10 µM: right ventricular papillary muscle
Description: as §2, §3, §4, §5, §6, §7, §8

[3] = test system: right anteior papillary muscle; test: Antiarrhythmic properties in rabbit cardiac preparations, right anterior papillary muscle (conduction time); conditions: Oryctolagus cuniculus, 1 h, 60 minutes, read-out: Conduction time, change in percentage from control
Description: as §2
as §3, with “The isolated left atrium, papillary muscle and the strip prepared from the anterior free wall of the right ventricle were electrically paced by rectangular electric impulses of 1 msec duration, twice-threshold intensity and a 100 per min frequency.” left out
as §4, with “examined. […]” for “examined.”

[4] = read-out: Conduction time, change in percentage from control
[5] = read-out: Effective refractory period, change in percentage from control
[6] = read-out: Electrical threshold, change in percentage from control

With `O=c1c2ccccc2c(Cc2ccc(Cl)cc2)nn1C1CCCN(CCc2ccccc2)CC1` (centres unmarked) the “Analgesic effect in test model IWRAC” value [1] was 91% and the “Analgesic effect in test model IRS” value (inflammation pain) was 77%.
`O=c1c2ccccc2c(Cc2ccc(F)cc2)nn1C1CCCN(Cc2ccccc2)CC1` (centres unmarked) was tested, and the “Analgesic effect in test model IWRAC” value [1] was 75% and the “Analgesic effect in test model IRS” value (inflammation pain) was 53%.
With `O=c1c2ccccc2c(Cc2ccc(F)cc2)nn1C1CCCN(CCc2ccccc2)CC1` (centres unmarked) the ED50 [1] was 2.7 mg/kg and the “Analgesic effect in test model IRS” value (inflammation pain) was 54%.
With `O=c1c2ccccc2c(Cc2ccc(F)cc2)nn1C1CCN(CCCc2ccccc2)CC1` the “Analgesic effect in test model IWRAC” value [1] was 77% and the “Analgesic effect in test model IRS” value (inflammation pain) was 67%.
For `O=c1c2ccccc2c(Cc2ccc(F)cc2)nn1C1CCN(CCCc2ccc(F)cc2)CC1`, the “Analgesic effect in test model IWRAC” value [1] was 67% and the “Analgesic effect in test model IRS” value (inflammation pain) was 52%.
For `CCOC(=O)CCN1CCC(n2nc(Cc3ccc(Cl)cc3)c3ccccc3c2=O)CC1`, the “Analgesic effect in test model IWRAC” value [1] was 67% and the “Analgesic effect in test model IRS” value (inflammation pain) was 50%.
`O=c1c2ccccc2c(Cc2ccccc2Cl)nn1C1CCCN(CCc2ccccc2)CC1` (centres unmarked) showed an ED50 [1] of 4.1 mg/kg and an ED50 (inflammation pain) of 4.7 mg/kg.
For `O=c1c2ccccc2c(Cc2ccco2)nn1C1CCCN(CCc2ccccc2)CC1` (centres unmarked), the “Analgesic effect in test model IRS” value (inflammation pain) was 40%.
Work on `O=c1c2ccccc2c(Cc2ccc(F)cc2)nn1C1CCCN(CCc2ccccc2)CC1` (racemic) [D-18024] yielded an activation at 10 µM (left atrial myocardium; [4]) of 91%, an activation at 10 µM (left atrial myocardium; [5]) of 66% and an activation at 10 µM (left atrial myocardium; [6]) of 12%. It also gave an inhibition at 10 µM (left atrial myocardium) of 39%, an activation at 10 µM (right anterior free wall) of -1% and an inhibition at 10 µM [2] of 48%. It also gave an activation at 10 µM [2, 5] of 7%, an activation at 10 µM [2, 6] of 29% and an activation at 10 µM [3] of 103%.
`O=c1c2ccccc2c(Cc2ccc(F)cc2)nn1C1CN2CCC1CC2` (centres unmarked) [4-F-Phenyl 3-Chinuclidyl] showed an ED50 [1] of 4.6 mg/kg and an ED50 (inflammation pain) of 1.5 mg/kg.
In the case of `CN1CCCC(n2nc(Cc3ccc(Cl)cc3)c3ccccc3c2=O)CC1` (centres unmarked) [Azelastine], the activation at 10 µM (left atrial myocardium; [4]) is reported as 40%, the activation at 10 µM (left atrial myocardium; [5]) is reported as 12% and the activation at 10 µM (left atrial myocardium; [6]) is reported as 25%. For the same compound, the activation at 10 µM (right anterior free wall) was 29%, the activation at 10 µM [2, 5] was 9% and the activation at 10 µM [2, 6] was 22%. The activation at 10 µM [3] was 50%.
In the case of `CN1[C@@H]2CC[C@H]1C[C@@H](OC(=O)c1c[nH]c3ccccc13)C2` [ICS-205930], the activation at 10 µM (left atrial myocardium; [4]) is reported as 57%, the activation at 10 µM (left atrial myocardium; [5]) is reported as 26% and the activation at 10 µM (left atrial myocardium; [6]) is reported as 51%. The inhibition at 10 µM (left atrial myocardium) was 33%, the activation at 10 µM (right anterior free wall) was 51% and the inhibition at 10 µM [2] was 29%. The activation at 10 µM [2, 5] was 21%, the activation at 10 µM [2, 6] was 34% and the activation at 10 µM [3] was 111%.
`O=c1c2ccccc2c(Cc2ccccc2)nn1C1CN2CCC1CC2` (centres unmarked) [Phenyl 3-Chinuclidyl] was tested, and the ED50 [1] was 3 mg/kg and the ED50 (inflammation pain) was 1.5 mg/kg.
